Test results published in patent US20060013880A1, “Formulation stabilizer for proton pump inhibitors” (priority 2004, published 2006).

Experimental: This standardized stress study simulates degradation during long-term storage under high, but naturally occurring humidity levels. • 1) Dry binary mixture was prepared by accurately weighing 30 mg of lansoprazole ( Lot # A10344, purchased from ITF Chemical, LTDA, of Polo Petrochimico, Brazil) into a 20 ml head space-gas chromatography vial. A stabilizer was also weighed and added into the vial. The stabilizer tested in the experiments included the polymeric bases: cholestyramine chloride ( Lot# 038167, Dow Chemical), cholestyramine resin in hydroxide form (prepared from cholestyramine chloride as described in Example 1), Eudragit E-PO powder (lot# G030131033, Rohm Gmbh, Germany), and chitosan powder (Mutchler inc., Harrington, N.J.). […] The lansoprazole and stabilizer were mixed by vortexing for 30 seconds. • 2) A second set of dry binary mixtures were prepared in a head space-gas chromatography vial with a glass insert. […] Ten microliters of the diluted samples were analyzed by HPLC to quantitate the remaining lansoprazole using freshly prepared external lansoprazole standard solution. […]

- Stabilization effect for lansoprazole (in words): significant stabilization effect
Substance: cholestyramine hydroxide
